Data: patent publication US20230111310A1, “CARBOXYLIC ACID DERIVATIVE-SUBSTITUTED IMINO ARYL COMPOUND, PREPARATION METHOD THEREFOR, HERBICIDAL COMPOSITION AND USE THEREOF” (Qingdao Kingagroot Chemical Compound Co., Ltd., priority 2020, published 2023)

How the values were obtained:
Assay in all cases: Weeding effect in post-emergence stage
Type in all cases: in vivo
Echinochloa crusgalli = settings: for Weeding effect in post-emergence stage, Echinochloa crusgalli (level): fresh weight control rate level; for Weeding effect in post-emergence stage, Echinochloa crusgalli: level of fresh weight growth control rate
Method in brief: (§1)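 Pot-grown greenhouse plants sprayed at 2–3 leaf stage, 2 weeks after sowing, with compound in acetone/Tween 80 plus methyl oleate emulsifiable concentrate (1.5 liter/ha) at 500–7.5 g/ha. Growth control rated 3 weeks after treatment; mean of three replicates.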

Eleusine indica = settings: for Weeding effect in post-emergence stage, Eleusine indica (level): fresh weight control rate level; for Weeding effect in post-emergence stage, Eleusine indica: level of fresh weight growth control rate
Method in brief: as §1

Setaria viridis = settings: for Weeding effect in post-emergence stage, Setaria viridis (level): fresh weight control rate level; for Weeding effect in post-emergence stage, Setaria viridis: level of fresh weight growth control rate
Method in brief: as §1

Abutilon theophrasti = settings: for Weeding effect in post-emergence stage, Abutilon theophrasti (level): fresh weight control rate level; for Weeding effect in post-emergence stage, Abutilon theophrasti: level of fresh weight growth control rate
Method in brief: as §1

Digitaria sanguinalis = settings: for Weeding effect in post-emergence stage, Digitaria sanguinalis (level): fresh weight control rate level; for Weeding effect in post-emergence stage, Digitaria sanguinalis: level of fresh weight growth control rate
Method in brief: as §1

Alopecurus japonicus = settings: for Weeding effect in post-emergence stage, Alopecurus japonicus (level): fresh weight control rate level; for Weeding effect in post-emergence stage, Alopecurus japonicus: level of fresh weight growth control rate
Method in brief: as §1

SMILES | Weeding effect in post-emergence stage, Echinochloa crusgalli (level) (Echinochloa crusgalli; Dose 15 g/ha) | Weeding effect in post-emergence stage, Eleusine indica (level) (Eleusine indica; Dose 15 g/ha) | Weeding effect in post-emergence stage, Setaria viridis (level) (Setaria viridis; Dose 15 g/ha) | Weeding effect in post-emergence stage, Abutilon theophrasti (level) (Abutilon theophrasti; Dose 15 g/ha) | Weeding effect in post-emergence stage, Digitaria sanguinalis (level) (Digitaria sanguinalis; Dose 15 g/ha) | Weeding effect in post-emergence stage, Alopecurus japonicus (level) (Alopecurus japonicus; Dose 15 g/ha) | Weeding effect in post-emergence stage, Echinochloa crusgalli (Echinochloa crusgalli; Dose 15 g/ha) | Weeding effect in post-emergence stage, Eleusine indica (Eleusine indica; Dose 15 g/ha) | Weeding effect in post-emergence stage, Setaria viridis (Setaria viridis; Dose 15 g/ha) | Weeding effect in post-emergence stage, Abutilon theophrasti (Abutilon theophrasti; Dose 15 g/ha) | Weeding effect in post-emergence stage, Digitaria sanguinalis (Digitaria sanguinalis; Dose 15 g/ha) | Weeding effect in post-emergence stage, Alopecurus japonicus (Alopecurus japonicus; Dose 15 g/ha) | also measured
CC(O/N=C/c1cc(-n2c(=O)cc(C(F)(F)F)n(C)c2=O)c(F)cc1Cl)C(=O)OCc1ccc(Cl)nc1 (stereo not drawn) [Compound 495] | 5 (Level 5: growth control rate is above 85%) | 5 (Level 5: growth control rate is above 85%) | 5 (Level 5: growth control rate is above 85%) | 5 (Level 5: growth control rate is above 85%) | 5 (Level 5: growth control rate is above 85%) | 5 (Level 5: growth control rate is above 85%) |  |  |  |  |  |  | 
C[C@@H](O/N=C/c1cc(-n2c(=O)cc(C(F)(F)F)n(C)c2=O)c(F)cc1Cl)C(=O)OCC(C)(F)F [220(R)] |  |  |  |  |  |  | 5 (Level 5: growth control rate is above 85%) | 5 (Level 5: growth control rate is above 85%) | 5 (Level 5: growth control rate is above 85%) | 5 (Level 5: growth control rate is above 85%) | 5 (Level 5: growth control rate is above 85%) | 5 (Level 5: growth control rate is above 85%) | 
COC(=O)C(C)O/N=C/c1cc(-n2c(=S)cc(C(F)(F)F)n(C)c2=S)c(F)cc1Cl (racemic) [Compound 351] |  |  |  |  |  |  |  |  |  |  |  |  | Weeding effect in post-emergence stage, Echinochloa crusgalli (Echinochloa crusgalli; Dose 60 g/ha): 5 (Level 5: growth control rate is above 85%); Weeding effect in post-emergence stage, Eleusine indica (Eleusine indica; Dose 60 g/ha): 5 (Level 5: growth control rate is above 85%); Weeding effect in post-emergence stage, Setaria viridis (Setaria viridis; Dose 60 g/ha): 5 (Level 5: growth control rate is above 85%); Weeding effect in post-emergence stage, Abutilon theophrasti (Abutilon theophrasti; Dose 60 g/ha): 5 (Level 5: growth control rate is above 85%); Weeding effect in post-emergence stage, Digitaria sanguinalis (Digitaria sanguinalis; Dose 60 g/ha): 5 (Level 5: growth control rate is above 85%); Weeding effect in post-emergence stage, Alopecurus japonicus (Alopecurus japonicus; Dose 60 g/ha): 5 (Level 5: growth control rate is above 85%)
CCOC(=O)[C@H](OC)O/N=C/c1cc(-n2c(=O)cc(C(F)(F)F)n(C)c2=O)c(F)cc1Cl [322(R)] |  |  |  |  |  |  |  |  |  |  |  |  | Weeding effect in post-emergence stage, Echinochloa crusgalli (Echinochloa crusgalli; Dose 120 g/ha): 5 (Level 5: growth control rate is above 85%); Weeding effect in post-emergence stage, Eleusine indica (Eleusine indica; Dose 120 g/ha): 5 (Level 5: growth control rate is above 85%); Weeding effect in post-emergence stage, Setaria viridis (Setaria viridis; Dose 120 g/ha): 5 (Level 5: growth control rate is above 85%); Weeding effect in post-emergence stage, Abutilon theophrasti (Abutilon theophrasti; Dose 120 g/ha): 5 (Level 5: growth control rate is above 85%); Weeding effect in post-emergence stage, Digitaria sanguinalis (Digitaria sanguinalis; Dose 120 g/ha): 5 (Level 5: growth control rate is above 85%); Weeding effect in post-emergence stage, Alopecurus japonicus (Alopecurus japonicus; Dose 120 g/ha): 5 (Level 5: growth control rate is above 85%)
COC(=O)C(C)O/N=C/c1cc(-n2c(=O)cc(C(F)(F)F)n(C)c2=O)c(F)cc1C(F)(F)F (stereo not drawn) [Compound 342] |  |  |  |  |  |  | 5 (Level 5: growth control rate is above 85%) | 5 (Level 5: growth control rate is above 85%) | 5 (Level 5: growth control rate is above 85%) | 5 (Level 5: growth control rate is above 85%) | 5 (Level 5: growth control rate is above 85%) | 4 (Level 4: growth control rate is greater than or equal to 60% and less than 85%) | 
CC(O/N=C/c1cc(-n2c(=O)cc(C(F)(F)F)n(C)c2=O)c(F)cc1Cl)C(=O)NS(=O)(=O)N(C)C(C)C (stereo not drawn) [Compound 421] | 5 (Level 5: growth control rate is above 85%) | 5 (Level 5: growth control rate is above 85%) | 5 (Level 5: growth control rate is above 85%) | 5 (Level 5: growth control rate is above 85%) | 5 (Level 5: growth control rate is above 85%) | 5 (Level 5: growth control rate is above 85%) |  |  |  |  |  |  | 
COC(=O)C(C)O/N=C/c1cc(-n2c(=O)cc(C(F)(F)F)n(C)c2=O)c(F)cc1C#N (stereo not drawn) [Compound 344] |  |  |  |  |  |  | 5 (Level 5: growth control rate is above 85%) | 5 (Level 5: growth control rate is above 85%) | 5 (Level 5: growth control rate is above 85%) | 5 (Level 5: growth control rate is above 85%) | 5 (Level 5: growth control rate is above 85%) | 5 (Level 5: growth control rate is above 85%) | 
C[C@@H](O/N=C/c1cc(-n2c(=O)n(C)c(=S)n(C)c2=O)c(F)cc1Cl)C(=O)OCC1CCCO1 (stereo partly drawn) [24(R)] |  |  |  |  |  |  | 5 (Level 5: growth control rate is above 85%) | 5 (Level 5: growth control rate is above 85%) | 5 (Level 5: growth control rate is above 85%) | 5 (Level 5: growth control rate is above 85%) | 5 (Level 5: growth control rate is above 85%) | 5 (Level 5: growth control rate is above 85%) | 
COC(=O)C(C)SN=Cc1cc(-n2c(=O)cc(C(F)(F)F)n(C)c2=O)c(F)cc1Cl (stereo not drawn) [Compound 730] | 5 (Level 5: growth control rate is above 85%) | 5 (Level 5: growth control rate is above 85%) | 5 (Level 5: growth control rate is above 85%) | 5 (Level 5: growth control rate is above 85%) | 5 (Level 5: growth control rate is above 85%) | 5 (Level 5: growth control rate is above 85%) |  |  |  |  |  |  | 
COC(=O)C(CF)O/N=C/c1cc(-n2c(=O)cc(C(F)(F)F)n(C)c2=O)c(F)cc1Cl (racemic) [Compound 463] | 5 (Level 5: growth control rate is above 85%) | 5 (Level 5: growth control rate is above 85%) | 5 (Level 5: growth control rate is above 85%) | 5 (Level 5: growth control rate is above 85%) | 5 (Level 5: growth control rate is above 85%) | 5 (Level 5: growth control rate is above 85%) |  |  |  |  |  |  | 
CC(O/N=C/c1cc(-n2c(=O)cc(C(F)(F)F)n(C)c2=O)c(F)cc1Cl)C(=O)OCC1(C#N)CC1 (stereo not drawn) [Compound 447] | 5 (Level 5: growth control rate is above 85%) | 5 (Level 5: growth control rate is above 85%) | 5 (Level 5: growth control rate is above 85%) | 5 (Level 5: growth control rate is above 85%) | 5 (Level 5: growth control rate is above 85%) | 5 (Level 5: growth control rate is above 85%) |  |  |  |  |  |  | 
CC(C#N)COC(=O)C(C)O/N=C/c1cc(-n2c(=O)cc(C(F)(F)F)n(C)c2=O)c(F)cc1Cl (stereo not drawn) [Compound 445] | 5 (Level 5: growth control rate is above 85%) | 5 (Level 5: growth control rate is above 85%) | 5 (Level 5: growth control rate is above 85%) | 5 (Level 5: growth control rate is above 85%) | 5 (Level 5: growth control rate is above 85%) | 5 (Level 5: growth control rate is above 85%) |  |  |  |  |  |  | 
COC(=O)C(O/N=C/c1cc(-n2c(=O)cc(C(F)(F)F)n(C)c2=O)c(F)cc1Cl)C(C)C (stereo not drawn) [Compound 318] |  |  |  |  |  |  | 5 (Level 5: growth control rate is above 85%) | 5 (Level 5: growth control rate is above 85%) | 5 (Level 5: growth control rate is above 85%) | 5 (Level 5: growth control rate is above 85%) | 5 (Level 5: growth control rate is above 85%) | 5 (Level 5: growth control rate is above 85%) | 
